# Patent US10265329B2, “Altering steroid metabolism for treatment of steroid-dependent disease” (THE CLEVELAND CLINIC FOUNDATION, priority 2015, dated 2019)
# Where two headings read alike, the source gives them in different places.
# Key:
# SRD5A = biological target: T1, SRD5A (Homo sapiens, UniProt P18405); experiment: Conversion of [3H]-AD to 5α-reduced androgens in LAPC4 cells; format: cell-based
# T1 construct: endogenous in cells; host or cells: LAPC4
# T1 sequence (P18405 1-259): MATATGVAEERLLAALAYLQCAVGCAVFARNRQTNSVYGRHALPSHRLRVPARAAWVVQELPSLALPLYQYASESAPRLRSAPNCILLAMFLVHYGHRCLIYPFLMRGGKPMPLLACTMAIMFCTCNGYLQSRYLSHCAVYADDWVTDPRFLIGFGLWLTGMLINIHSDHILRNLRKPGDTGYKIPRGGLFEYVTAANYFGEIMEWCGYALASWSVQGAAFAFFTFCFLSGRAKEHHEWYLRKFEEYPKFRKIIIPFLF
# Method: Cell Line Metabolism: Cells were seeded and incubated in 12-well plates with 0.2 million cells/well for ˜24 h and then incubated with a mixture of radioactive ([^3H]-labeled) and non-radioactive androgens (final concentration, 100 nM; ˜1,000,000 cpm/well; PerkinElmer, Waltham, Mass.) at 37° C. Aliquots of medium were collected at the indicated times. Collected medium was treated with 1,000 units of β-glucuronidase (Helix pomatia; Sigma-Aldrich) at 65° C. for 2 h, extracted with 860 μL ethyl acetate:isooctane (1:1), and concentrated under nitrogen gas. Xenograft Metabolism: 10^7 LNCaP or VCaP cells were injected subcutaneously with Matrigel into surgically orchiectomized NSG mice that were implanted with 5 mg 90-day sustained-release DHEA pellets (Innovative Research of American, Sarasota, Fla.). Xenografts were harvested when they reached 1000 mm^3, minced, and cultured in DMEM with 10% FBS at 37° C. with mixture of radioactive ([^3H]-labeled) and non-radioactive androgens, or Abi, when they reached 1000 mm^3. Each xenograft was analyzed in triplicate in at least three independent experiments. Aliquots of medium were collected at the indicated times. Collected medium was treated with 1,000 units of β-glucuronidase at 65° C. for 2 h, extracted with 860 μL ethyl acetate:isooctane (1:1), and concentrated under nitrogen gas.
# Dried samples were reconstituted in 50% methanol and injected into the HPLC. Steroids and drug metabolites were separated on Kinetex 100×2.1 mm, 2.6 μm particle size C18 reverse-phase column (Phenomenex, Torrance, Calif.) using a methanol/water gradient at 30° C. […] Alternatively, dried samples were applied to plastic-backed silica gel plates and separated by thin-layer chromatography (TLC) using a mobile phase of 3:1 chloroform:ethyl acetate, followed by exposure of the plates to a phosphorimager screen and quantitated with a Storm model 860 phosphorimager (Applied Biosystems, Foster City, Calif.). […] Results are shown as mean±SD.
# Collected medium was treated with β-glucuronidase (Helix pomatia; Sigma-Aldrich), extracted with ethyl acetate:isooctane (1:1), and concentrated under nitrogen gas as described. Li et al., 523, 347-351 (2015).
# Dried samples were reconstituted in 50% methanol and separated on Kinetex 100×2.1 mm, 2.6 μm particle size C18 reverse-phase column (Phenomenex, Torrance, Calif.) using a methanol/water gradient at 30° C. […] Results are shown as mean±SD.
# wild-type AR (LAPC4) = biological target: T2, wild-type AR (LAPC4) (Homo sapiens, UniProt P10275); experiment: AR competition assay with [3H]-R1881 in LAPC4 cells; format: binding; conditions: for affinity for wild-type AR: [3H]-R1881, 30 min
# T2 construct: endogenous in cells; host or cells: LAPC4
# T2 sequence (P10275 1-920): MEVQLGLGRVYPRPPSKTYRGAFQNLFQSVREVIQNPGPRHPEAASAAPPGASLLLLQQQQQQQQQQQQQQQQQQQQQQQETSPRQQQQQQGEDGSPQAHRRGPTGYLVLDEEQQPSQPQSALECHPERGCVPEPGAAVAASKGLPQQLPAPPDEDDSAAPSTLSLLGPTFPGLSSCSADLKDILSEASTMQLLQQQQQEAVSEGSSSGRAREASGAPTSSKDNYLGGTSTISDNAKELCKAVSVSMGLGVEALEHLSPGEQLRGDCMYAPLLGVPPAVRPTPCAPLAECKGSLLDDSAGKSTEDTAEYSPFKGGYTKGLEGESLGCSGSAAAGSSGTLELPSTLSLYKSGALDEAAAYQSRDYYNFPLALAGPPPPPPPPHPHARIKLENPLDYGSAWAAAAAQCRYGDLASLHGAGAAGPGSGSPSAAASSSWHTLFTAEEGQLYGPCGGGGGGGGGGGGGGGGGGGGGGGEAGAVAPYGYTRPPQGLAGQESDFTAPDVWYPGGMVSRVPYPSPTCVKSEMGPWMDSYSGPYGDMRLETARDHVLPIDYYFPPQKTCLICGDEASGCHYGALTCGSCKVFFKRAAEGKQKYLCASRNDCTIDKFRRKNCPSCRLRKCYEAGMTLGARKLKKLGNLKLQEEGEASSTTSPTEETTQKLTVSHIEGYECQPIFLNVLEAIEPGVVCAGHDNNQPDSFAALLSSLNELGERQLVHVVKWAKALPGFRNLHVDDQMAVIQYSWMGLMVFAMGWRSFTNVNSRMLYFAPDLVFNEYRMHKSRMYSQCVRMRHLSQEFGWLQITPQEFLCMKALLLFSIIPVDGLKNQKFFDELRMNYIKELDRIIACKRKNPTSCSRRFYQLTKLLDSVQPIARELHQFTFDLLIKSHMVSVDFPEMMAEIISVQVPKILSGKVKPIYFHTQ
# Method: Cells were cultured in serum-free medium for 48 h and then treated with [^3H]-R1881 and the indicated concentrations of D4A, Abi, enzalutamide, R1881 or bicalutamide for 30 min. Cells were washed with 1×PBS 4 times and 0.9% NaCl solution twice before lysis with RIPA buffer.
# Cells were starved with phenol red-free and serum free-medium for at least 48 h and then treated with [^3H]-R1881 and the indicated concentrations of drugs for 30 min. Cells were washed thoroughly with PBS and then lysed with […].
SMILES,"block of conversion from AD to 5α-androstanedione and other 5α-reduced androgens (SRD5A; 10 μM, LAPC4 cells)","IC50 (wild-type AR (LAPC4); competition with 0.1 nM [3H]-R1881, read-out: IC50, affinity for wild-type AR) [nM]",SRD5A inhibition activity relative to D4A (SRD5A),affinity for wild-type AR (wild-type AR (LAPC4)),"SRD5A inhibition activity relative to D4A (SRD5A; LAPC4, [3H]-AD to 5α-dione, 24 hours)"
"C[C@]12CCC(=O)C=C1CC[C@@H]1[C@@H]2CC[C@]2(C)C(c3cccnc3)=CC[C@@H]12 [Compound D4A, 17-(3-Pyridyl)androsta-4,16-dien-3-one]",nearly completely blocks,7.9,,,
"C[C@]12CCC(=O)C[C@@H]1CC[C@@H]1[C@@H]2CC[C@]2(C)C(c3cccnc3)=CC[C@@H]12 [Compound 5α-Abi, 17-(3-pyridyl)-5α-androsta-16-ene-3-one]",,,lose SRD5A inhibition activity,comparable to that of D4A,
"C[C@]12CC[C@@H](O)C[C@@H]1CC[C@@H]1[C@@H]2CC[C@]2(C)C(c3cccnc3)=CC[C@@H]12 [Compound 3α-OH-5α-Abi, 17-(3-pyridyl)-5α-androsta-16-ene-3α-ol]",,,,lower,lose SRD5A inhibition activity
